The NIST ThermoML archive (doi:10.1021/acs.jced.5b00451)

Assay: mn = molality of the nth substance listed, in mol/kg
Settings: 101.33 kPa, Liquid, Vibrating tube method

CCCCCCCCCC[N+](C)(C)C.[Br-] [N,N,N-trimethyl-1-decanaminium bromide] + O
mass density [kg/m3]
Settings | m1 = 0.01879 | m1 = 0.02836 | m1 = 0.04784 | m1 = 0.05741 | m1 = 0.06268 | m1 = 0.0767 | m1 = 0.08783 | m1 = 0.09727 | m1 = 0.1206 | m1 = 0.1383
293.15 K | 998.685 | 998.921 | 999.399 | 999.635 | 999.765 | 1000.05 | 1000.28 | 1000.47 | 1000.86 | 1001.23
298.15 K | 997.496 | 997.716 | 998.157 | 998.379 | 998.511 | 998.788 | 998.987 | 999.17 | 999.597 | 999.91
303.15 K | 996.082 | 996.312 | 996.748 | 996.949 | 997.055 | 997.334 | 997.534 | 997.707 | 998.105 | 998.375

CCCCCCCCCCCCCCCC[N+](C)(C)C.[Br-] [N,N,N-trimethyl-1-hexadecanaminium bromide] + O
mass density [kg/m3]
Settings | 293.15 K | 298.15 K | 303.15 K
m1 = 0.00082 | 998.23 | 997.052 | 995.673
m1 = 0.00093 | 998.234 | 997.055 | 995.669
m1 = 0.00104 | 998.238 | 997.058 | 995.669
m1 = 0.00205 | 998.239 | 997.06 | 995.666
m1 = 0.00309 | 998.245 | 997.062 | 995.67
m1 = 0.00411 | 998.243 | 997.065 | 995.678
m1 = 0.00625 | 998.254 | 997.073 | 995.681
m1 = 0.00726 | 998.258 | 997.076 | 995.678
m1 = 0.00801 | 998.255 | 997.076 | 995.687
m1 = 0.00931 | 998.264 | 997.078 | 995.679
m1 = 0.01038 | 998.274 | 997.082 | 995.679
m1 = 0.01139 | 998.276 | 997.089 | 995.693
m1 = 0.01252 | 998.279 | 997.093 | 995.676
m1 = 0.01454 | 998.293 | 997.098 | 995.699
m1 = 0.01561 | 998.296 | 997.105 | 995.676

CCCCCCCCCCCC[N+](C)(C)C.[Br-] [dodecyltrimethylammonium bromide] + O
mass density [kg/m3]
Settings | 293.15 K | 298.15 K | 303.15 K
m1 = 0.00799 | 998.38 | 997.201 | 995.799
m1 = 0.00998 | 998.422 | 997.244 | 995.839
m1 = 0.01168 | 998.455 | 997.278 | 995.868
m1 = 0.01448 | 998.514 | 997.332 | 995.921
m1 = 0.01695 | 998.566 | 997.376 | 995.96
m1 = 0.01883 | 998.601 | 997.406 | 995.987
m1 = 0.02825 | 998.739 | 997.528 | 996.106
m1 = 0.04703 | 998.998 | 997.783 | 996.34
m1 = 0.09497 | 999.663 | 998.401 | 996.928
m1 = 0.1963 | 1001.05 | 999.701 | 998.119
m1 = 0.301 | 1002.39 | 1000.96 | 999.316

CCCCCC[N+](C)(C)C.[Br-] [hexyltrimethylammonium bromide] + O
mass density [kg/m3]
Settings | 293.15 K | 298.15 K | 303.15 K
m1 = 0.04932 | 999.719 | 998.528 | 997.065
m1 = 0.07746 | 1000.55 | 999.34 | 997.873
m1 = 0.08812 | 1000.88 | 999.654 | 998.174
m1 = 0.1186 | 1001.76 | 1000.52 | 999.049
m1 = 0.1774 | 1003.49 | 1002.19 | 1000.78
m1 = 0.1855 | 1003.72 | 1002.41 | 1000.97
m1 = 0.2757 | 1006.26 | 1004.93 | 1003.53
m1 = 0.3712 | 1008.99 | 1007.66 | 1006.15
m1 = 0.4703 | 1011.8 | 1010.34 | 1008.8
m1 = 0.5274 | 1013.14 | 1011.76 | 1010.3
m1 = 0.5803 | 1014.75 | 1013.13 | 1011.67
m1 = 0.636 | 1016.19 | 1014.59 | 1013.12

CCCCCCCC[N+](C)(C)C.[Br-] [octyl trimethyl ammonium bromide] + O
mass density [kg/m3]
Settings | m1 = 0.04535 | m1 = 0.09122 | m1 = 0.1223 | m1 = 0.1444 | m1 = 0.1759 | m1 = 0.1958 | m1 = 0.2338 | m1 = 0.2621 | m1 = 0.2773 | m1 = 0.3003
293.15 K | 999.46 | 1000.72 | 1001.54 | 1002.14 | 1002.97 | 1003.52 | 1004.58 | 1005.29 | 1005.65 | 1006.33
298.15 K | 998.261 | 999.486 | 1000.3 | 1000.84 | 1001.75 | 1002.13 | 1003.15 | 1003.84 | 1004.24 | 1004.76
303.15 K | 996.848 | 998.045 | 998.815 | 999.391 | 1000.2 | 1000.69 | 1001.63 | 1002.32 | 1002.69 | 1003.25

CCCCCCCCCCCCCC[N+](C)(C)C.[Br-] [tetradecyltrimethylammonium bromide] + O
mass density [kg/m3]
Settings | 293.15 K | 298.15 K | 303.15 K
m1 = 0.00291 | 998.259 | 997.091 | 995.687
m1 = 0.00325 | 998.265 | 997.097 | 995.692
m1 = 0.00379 | 998.273 | 997.103 | 995.706
m1 = 0.00393 | 998.275 | 997.105 | 995.704
m1 = 0.0049 | 998.286 | 997.115 | 995.708
m1 = 0.0065 | 998.302 | 997.127 | 995.727
m1 = 0.00821 | 998.32 | 997.144 | 995.739
m1 = 0.01087 | 998.344 | 997.164 | 995.749
m1 = 0.04969 | 998.72 | 997.499 | 996.055
m1 = 0.09742 | 999.176 | 997.906 | 996.41
m1 = 0.1468 | 999.632 | 998.322 | 996.79
m1 = 0.1955 | 1000.08 | 998.719 | 997.144
m1 = 0.3023 | 1001 | 999.537 | 997.713
